Assay results: patent US20210038515A1 (Azurity Pharmaceuticals, Inc., priority 2014, published 2021)

Test system: Clostridium difficile
Experiment: Agar dilution MIC of vancomycin preparations (Sigma, Cutis), diluent, Na benzoate and Na citrate
Assay type: cell-based
Details: for MIC, AV (average): average of triplicate; for MIC, VAN-1: replicate 1; for MIC, VAN-2: replicate 2; for MIC, VAN-3: replicate 3
Experimental: Introduction: The purpose of the study was to compare the MICs obtained with the formulation of vancomycin HCL of the invention (Cutis) to formulations obtained using a vancomycin HCL reference standard powder obtained from Sigma. The Example also involves the analysis of a solution or diluent to determine if it has antimicrobial activity at the concentrations present in the agar dilution test.
The C. difficile were tested by agar dilution according to the procedures in the Clinical and Laboratory Standards Institute. 2012. Methods for antimicrobial susceptibility testing of anaerobic bacteria; approved standard-seventh edition.
Other anaerobic organisms included clinical isolates of Bifidobacterium adolescentis and Bacteroides fragilis. Clostridium difficile ATCC 700057 was included as a quality control strain.
The C. difficile isolates were recovered from patients with CDI during the past two years and stored at −70° C. in 20% skim milk. Ribotyping was performed by another reference laboratory. The strains were taken from the freezer and subcultured at least twice to ensure purity and good growth.
On the day of testing, they were suspended in Brucella broth to the turbidity of the 0.5 McFarland standard for testing.
Stock solution of the Sigma vancomycin was prepared in water and stored at −70° C. On the day of testing, it was thawed and further diluted in water to obtain the desired range of 16-0.125 μg/ml. The Cutis vancomycin (25 mg/ml) was reconstituted on the day of testing and further diluted for a final range of 16-0.125 μg/ml in the test. The antimicrobials were added to molten Brucella agar supplemented with vitamin K and hemin to prepare the plates. Drug-free growth controls were included for testing before and after each set of plates. All testing was done in triplicate.
The organisms were pipetted into the wells of the Steers replicator head and applied to the plates with the multi-pronged replicator. The final concentration of organisms was ˜10^5 CFU/spot.
The plates were incubated in the anaerobic chamber incubator for 44 h and examined for growth.
The Cutis diluent comprises: water, about 0.12% (w/v) citric acid (anhydrous), 0.2% (w/v) sucralose, about 0.05% (w/v) artificial grape flavor, 0.1% (w/v) sodium benzoate, about 0.0002% (w/v) D&C Yellow No. 10 and about 0.000038% (w/v) FD&C Red No. 40.

## CN[C@H](CC(C)C)C(=O)N[C@H]1C(=O)N[C@@H](CC(N)=O)C(=O)N[C@H]2C(=O)N[C@H]3C(=O)N[C@H](C(=O)N[C@H](C(=O)O)c4cc(O)cc(O)c4-c4cc3ccc4O)[C@H](O)c3ccc(c(Cl)c3)Oc3cc2cc(c3O[C@@H]2O[C@H](CO)[C@@H](O)[C@H](O)[C@H]2O[C@H]2C[C@](C)(N)[C@H](O)[C@H](C)O2)Oc2ccc(cc2Cl)[C@H]1O.Cl [Sigma]
RMA 24690, ribotype 027
  MIC, AV (average): 5.3 µg/mL
  MIC, VAN-1: 4 µg/mL
  MIC, VAN-2: 4 µg/mL
  MIC, VAN-3: 8 µg/mL
RMA 26381, ribotype 017
  MIC, AV (average): 1.7 µg/mL
  MIC, VAN-1: 2 µg/mL
  MIC, VAN-2: 2 µg/mL
  MIC, VAN-3: 1 µg/mL
RMA 26442, ribotype 017
  MIC, AV (average): 1 µg/mL
  MIC, VAN-1: 1 µg/mL
  MIC, VAN-2: 1 µg/mL
  MIC, VAN-3: 1 µg/mL
RMA 26443, ribotype 027
  MIC, AV (average): 4 µg/mL
  MIC, VAN-1: 4 µg/mL
  MIC, VAN-2: 4 µg/mL
  MIC, VAN-3: 4 µg/mL
RMA 26445, ribotype 017
  MIC, AV (average): 2 µg/mL
  MIC, VAN-1: 2 µg/mL
  MIC, VAN-2: 2 µg/mL
  MIC, VAN-3: 2 µg/mL
RMA 26446, ribotype 027
  MIC, AV (average): 1 µg/mL
  MIC, VAN-1: 1 µg/mL
  MIC, VAN-2: 1 µg/mL
  MIC, VAN-3: 1 µg/mL
RMA 26447, ribotype 001
  MIC, AV (average): 2 µg/mL
  MIC, VAN-1: 2 µg/mL
  MIC, VAN-2: 2 µg/mL
  MIC, VAN-3: 2 µg/mL
RMA 26451, ribotype 001
  MIC, AV (average): 1.7 µg/mL
  MIC, VAN-1: 2 µg/mL
  MIC, VAN-2: 2 µg/mL
  MIC, VAN-3: 1 µg/mL
RMA 26455, ribotype 027
  MIC, AV (average): 1 µg/mL
  MIC, VAN-1: 1 µg/mL
  MIC, VAN-2: 1 µg/mL
  MIC, VAN-3: 1 µg/mL
RMA 26457, ribotype 027
  MIC, AV (average): 1 µg/mL
  MIC, VAN-1: 1 µg/mL
  MIC, VAN-2: 1 µg/mL
  MIC, VAN-3: 1 µg/mL
RMA 26461, ribotype 106
  MIC, AV (average): 1.3 µg/mL
  MIC, VAN-1: 1 µg/mL
  MIC, VAN-2: 2 µg/mL
  MIC, VAN-3: 1 µg/mL
RMA 26463, ribotype 002
  MIC, AV (average): 1.3 µg/mL
  MIC, VAN-1: 1 µg/mL
  MIC, VAN-2: 2 µg/mL
  MIC, VAN-3: 1 µg/mL
RMA 26466, ribotype 020
  MIC, AV (average): 1.7 µg/mL
  MIC, VAN-1: 2 µg/mL
  MIC, VAN-2: 2 µg/mL
  MIC, VAN-3: 1 µg/mL
RMA 26467, ribotype 002
  MIC, AV (average): 1.3 µg/mL
  MIC, VAN-1: 1 µg/mL
  MIC, VAN-2: 2 µg/mL
  MIC, VAN-3: 1 µg/mL
RMA 26471, ribotype 001
  MIC, AV (average): 2 µg/mL
  MIC, VAN-1: 2 µg/mL
  MIC, VAN-2: 2 µg/mL
  MIC, VAN-3: 2 µg/mL
RMA 26472, ribotype 014
  MIC, AV (average): 1 µg/mL
  MIC, VAN-1: 1 µg/mL
  MIC, VAN-2: 1 µg/mL
  MIC, VAN-3: 1 µg/mL
RMA 26480, ribotype 106
  MIC, AV (average): 1 µg/mL
  MIC, VAN-1: 1 µg/mL
  MIC, VAN-2: 1 µg/mL
  MIC, VAN-3: 1 µg/mL
RMA 26484, ribotype 106
  MIC, AV (average): 1 µg/mL
  MIC, VAN-1: 1 µg/mL
  MIC, VAN-2: 1 µg/mL
  MIC, VAN-3: 1 µg/mL
RMA 26485, ribotype 078
  MIC, AV (average): 1.3 µg/mL
  MIC, VAN-1: 2 µg/mL
  MIC, VAN-2: 1 µg/mL
  MIC, VAN-3: 1 µg/mL
RMA 26489, ribotype 176
  MIC, AV (average): 1 µg/mL
  MIC, VAN-1: 1 µg/mL
  MIC, VAN-2: 1 µg/mL
  MIC, VAN-3: 1 µg/mL
RMA 26494, ribotype 126
  MIC, AV (average): 1.3 µg/mL
  MIC, VAN-1: 1 µg/mL
  MIC, VAN-2: 2 µg/mL
  MIC, VAN-3: 1 µg/mL
RMA 26500, ribotype 014
  MIC, AV (average): 1 µg/mL
  MIC, VAN-1: 1 µg/mL
  MIC, VAN-2: 1 µg/mL
  MIC, VAN-3: 1 µg/mL
RMA 26503, ribotype 014
  MIC, AV (average): 1 µg/mL
  MIC, VAN-1: 1 µg/mL
  MIC, VAN-2: 1 µg/mL
  MIC, VAN-3: 1 µg/mL
RMA 26543, ribotype 078
  MIC, AV (average): 1 µg/mL
  MIC, VAN-1: 1 µg/mL
  MIC, VAN-2: 1 µg/mL
  MIC, VAN-3: 1 µg/mL
RMA 26544, ribotype 078
  MIC, AV (average): 2 µg/mL
  MIC, VAN-1: 2 µg/mL
  MIC, VAN-2: 2 µg/mL
  MIC, VAN-3: 2 µg/mL
RMA 26563, ribotype 018
  MIC, AV (average): 1 µg/mL
  MIC, VAN-1: 1 µg/mL
  MIC, VAN-2: 1 µg/mL
  MIC, VAN-3: 1 µg/mL
RMA 26572, ribotype 017
  MIC, AV (average): 1.7 µg/mL
  MIC, VAN-1: 2 µg/mL
  MIC, VAN-2: 2 µg/mL
  MIC, VAN-3: 1 µg/mL
